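Tested at 5 concentrations; 48 h exposure; 96-well plates; endpoints linearly interpolated, else capped at highest concentration. GI50 is the concentration that inhibits growth by half.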 Calls of active or inactive are those of the source. No stated cut-off is given here; in the data, active = GI50 up to about 1.1 µM and inactive = higher.
Key:
Assay in all cases: DTP human tumour cell line panel, 48 h
[1] = tested on: UACC-62
[2] = tested on: SF-295
[3] = tested on: A498
[4] = tested on: OVCAR-3
[5] = tested on: SR
[6] = tested on: HOP-92
[7] = tested on: HT-29
[8] = tested on: MDA-MB-231
[9] = tested on: CAKI-1
[10] = tested on: EKVX
[11] = tested on: SF-268
[12] = tested on: MCF7
[13] = tested on: SNB-19
[14] = tested on: COLO 205
[15] = tested on: CCRF-CEM
[16] = tested on: LOX IMVI
[17] = tested on: A549
[18] = tested on: BT-549
[19] = tested on: SW-620
[20] = tested on: MOLT-4

Compound	GI50 [1]	GI50 [2]	GI50 [3]	GI50 [4]	GI50 [5]	GI50 [6]	GI50 [7]	GI50 [8]	GI50 [9]	GI50 [10]	GI50 [11]	GI50 [12]	GI50 [13]	GI50 [14]	GI50 [15]	GI50 [16]	GI50 [17]	GI50 [18]	GI50 [19]	GI50 [20]
Cc1sc(/N=C/c2c[nH]c3ccccc23)c(C#N)c1C	20.7 µM (inactive)	28.3 µM (inactive)	28.7 µM (inactive)	11.2 µM (inactive)	18.2 µM (inactive)	45.7 µM (inactive)	6.89 µM (inactive)	36.4 µM (inactive)	56.2 µM (inactive)	67.9 µM (inactive)	85.3 µM (inactive)	27.7 µM (inactive)	61.2 µM (inactive)	> 100 µM (inactive)	15.3 µM (inactive)	34.6 µM (inactive)	65 µM (inactive)	42.1 µM (inactive)	39.7 µM (inactive)	23 µM (inactive)
Cc1nc(-c2ccccc2)cn2c1nc1ccccc12	14.7 µM (inactive)	23.9 µM (inactive)	15.3 µM (inactive)	26.7 µM (inactive)	27.2 µM (inactive)	21 µM (inactive)	24.3 µM (inactive)	29.9 µM (inactive)	21.1 µM (inactive)	25.2 µM (inactive)	28.5 µM (inactive)	2.8 µM (inactive)	29.5 µM (inactive)	37.9 µM (inactive)	> 58.7 µM (inactive)	20.8 µM (inactive)	19.4 µM (inactive)	17.4 µM (inactive)	27.7 µM (inactive)	44 µM (inactive)
CC(C)NC(=O)OCc1c(COC(=O)NC(C)C)c(-c2cc[n+](COC(=O)C(C)(C)C)cc2)n2c1CCC2	> 100 µM (inactive)	> 100 µM (inactive)	> 100 µM (inactive)	> 100 µM (inactive)	19.1 µM (inactive)	> 100 µM (inactive)	> 100 µM (inactive)	> 100 µM (inactive)	60 µM (inactive)	> 100 µM (inactive)	> 100 µM (inactive)	> 100 µM (inactive)	> 100 µM (inactive)	> 100 µM (inactive)	> 100 µM (inactive)	> 100 µM (inactive)	> 100 µM (inactive)	> 100 µM (inactive)	> 100 µM (inactive)	> 100 µM (inactive)
Oc1ccc2ccccc2c1CN(Cc1c(O)ccc2ccccc12)C1CCCCC1	16.8 µM (inactive)	37 µM (inactive)	27 µM (inactive)	19.1 µM (inactive)	21.3 µM (inactive)	18 µM (inactive)	21.6 µM (inactive)	18.5 µM (inactive)	16.6 µM (inactive)	15.4 µM (inactive)	14.1 µM (inactive)	15.5 µM (inactive)	28.2 µM (inactive)	16.1 µM (inactive)	27.3 µM (inactive)	15 µM (inactive)	19.4 µM (inactive)	19.8 µM (inactive)	20.1 µM (inactive)	16.6 µM (inactive)
CN(C)CCCn1c(Cc2ccc(Cl)cc2)nc2cc(C(F)(F)F)ccc21	17.3 µM (inactive)	17.5 µM (inactive)	12.7 µM (inactive)	14.5 µM (inactive)	15 µM (inactive)	9.98 µM (inactive)	14.6 µM (inactive)	13.6 µM (inactive)	13.3 µM (inactive)	17.4 µM (inactive)	14.1 µM (inactive)	14.5 µM (inactive)	16.5 µM (inactive)	10.7 µM (inactive)	13 µM (inactive)	14.5 µM (inactive)	18.2 µM (inactive)	17 µM (inactive)	23.4 µM (inactive)	11.2 µM (inactive)
O=C(NCCCCCCCCNC(=O)Nc1cccc2ccccc12)Nc1cccc2ccccc12	32.9 µM (inactive)	28.5 µM (inactive)	11 µM (inactive)	36.5 µM (inactive)	> 10 µM (inactive)	6.92 µM (inactive)	> 100 µM (inactive)	7.69 µM (inactive)	40.9 µM (inactive)	62.1 µM (inactive)	14.1 µM (inactive)	13.8 µM (inactive)	32.2 µM (inactive)	35.6 µM (inactive)	12.9 µM (inactive)	8.34 µM (inactive)	35.1 µM (inactive)	31.6 µM (inactive)	9.66 µM (inactive)	41.6 µM (inactive)
COC(=O)C12Oc3ccc(-c4ccc5c(c4O)C(O)=C4C(=O)CC(C)C(O)C4(C(=O)OC)O5)c(O)c3C(O)=C1C(=O)CC(C)C2O (stereo not given)	0.0708 µM (active)	0.211 µM (active)	0.544 µM (active)	0.0719 µM (active)	0.0234 µM (active)	0.466 µM (active)	0.0495 µM (active)	0.63 µM (active)	0.346 µM (active)	0.0805 µM (active)	0.0843 µM (active)	0.151 µM (active)	0.583 µM (active)	0.0656 µM (active)	0.0255 µM (active)	0.151 µM (active)	0.0702 µM (active)	0.262 µM (active)	0.0889 µM (active)	0.0641 µM (active)
O=C(O)CCSC(CC1(c2ccc(Cl)cc2)NC(=O)CCS1)c1ccccc1 (stereo not given)	19.9 µM (inactive)	21.2 µM (inactive)	21.5 µM (inactive)	20.2 µM (inactive)	8.32 µM (inactive)	33.8 µM (inactive)	17.3 µM (inactive)	22.1 µM (inactive)	16.9 µM (inactive)	21.5 µM (inactive)	18 µM (inactive)	3.87 µM (inactive)	23.8 µM (inactive)	22.3 µM (inactive)	1.9 µM (inactive)	14.6 µM (inactive)	24.2 µM (inactive)	17 µM (inactive)	5.12 µM (inactive)	12.5 µM (inactive)
CN1CCN(C2=C(Cl)C(=O)c3c(O)ccc(O)c3C2=O)CC1	1.32 µM (inactive)	1.78 µM (inactive)	2.52 µM (inactive)	0.542 µM (active)	0.094 µM (active)	0.223 µM (active)	0.359 µM (active)	0.516 µM (active)	0.546 µM (active)	1.66 µM (inactive)	1.85 µM (inactive)	0.24 µM (active)	4.99 µM (inactive)	0.182 µM (active)	0.105 µM (active)	0.635 µM (active)	2.16 µM (inactive)	0.486 µM (active)	0.187 µM (active)	0.13 µM (active)
O=C(Cn1nc(Br)c(Br)c1Br)c1ccccc1	20 µM (inactive)	29.1 µM (inactive)	35 µM (inactive)	34.1 µM (inactive)	0.152 µM (active)	20 µM (inactive)	22.2 µM (inactive)	18.9 µM (inactive)	26.7 µM (inactive)	22.5 µM (inactive)	51.3 µM (inactive)	36.2 µM (inactive)	39.3 µM (inactive)	18.9 µM (inactive)	5.97 µM (inactive)	16.4 µM (inactive)	33.7 µM (inactive)	20.2 µM (inactive)	34 µM (inactive)	0.238 µM (active)
O=C(/C=C/C=C/c1ccccc1)c1ccc2c(c1)CCCC2	> 100 µM (inactive)	58.3 µM (inactive)	38 µM (inactive)	35.6 µM (inactive)	21.2 µM (inactive)	30 µM (inactive)	28.4 µM (inactive)	96.6 µM (inactive)	74.3 µM (inactive)	36.5 µM (inactive)	16.2 µM (inactive)	32 µM (inactive)	97.7 µM (inactive)	40.4 µM (inactive)	27.8 µM (inactive)	30.1 µM (inactive)	49.8 µM (inactive)	26 µM (inactive)	45.8 µM (inactive)	25.9 µM (inactive)
O=C1c2c(Br)sc(Br)c2[C@@H](Cl)[C@H]1Cl	18.2 µM (inactive)	20.5 µM (inactive)	> 100 µM (inactive)	14.3 µM (inactive)	2.81 µM (inactive)	21 µM (inactive)	28.4 µM (inactive)	19.5 µM (inactive)	20.7 µM (inactive)	21.7 µM (inactive)	19.1 µM (inactive)	21.5 µM (inactive)	18.9 µM (inactive)	15.7 µM (inactive)	3.18 µM (inactive)	15.2 µM (inactive)	29 µM (inactive)	20.6 µM (inactive)	5.08 µM (inactive)	14.9 µM (inactive)

From ChEMBL document CHEMBL1201862, “PubChem BioAssay data set” (2004)
